Legend:
bile duct ligated rats [1] = format: in vivo, rat; settings: serum; BDL rats, clofibrate 50 mg/100 g body weight/day by gavage for 5 days after 7 days BDL; mean ± standard error
[2] = test system: liver fatty acid binding protein; assay: L-FABP mRNA (RT-PCR) and protein (Western blot) level in liver of bile duct ligated rats with clofibrate treatment; format: in vivo, rat; settings: BDL rats, five day treatment with clofibrate, n=5
Description: FIG. 5. […] Bile-duct ligation animal model time study: […] Histopathologic examination: […] The sense primer was [NT] […] ID NO: 2) (position at 407).

bile duct ligated rats [3] = assay: Lipid peroxidation (thiobarbituric acid-reactive substances) assay in bile duct ligated rats with clofibrate treatment; format: in vivo, rat; settings: BDL rats, clofibrate 50 mg/100 g body weight/day by gavage for 5 days after 7 days BDL, mean ± standard error
Description: Bile-duct ligation animal model time study: […] Histopathologic examination: […] The sense primer was [NT] […] ID NO: 2) (position at 407).

[4] = In vitro antioxidative effect on free radicals released by the lipophilic free radical generator AMVN; format: biochemical
Procedure: FIG. 7 Effect of L-FABP on free radicals released by the lipophilic free radical generator AMVN. L-FABP had as much effect on inactivating lipophilic free radicals as 5 μM Vitamin E (mean±SD, n=6).
(§1) Our group has constructed and isolated recombinant L-FABP and used this protein in an in vitro model to study it's antioxidative properties.

[5] = In vitro antioxidative effect on free radicals released by the hydrophilic free radical generator AAPH; format: biochemical; settings: mean±SD, n=6
Procedure: FIG. 6 Effect of L-FABP on free radicals released by the hydrophilic free radical generator AAPH. L-FABP had as much effect on inactivating hydrophilic free radicals as 3.5 mM Vitamin C, while lysozyme and albumin had negligible effect, 96±1% and 97±1%, respectively (mean±SD, n=6).
as §1

CCOC(=O)C(C)(C)Oc1ccc(Cl)cc1 [Clofibrate]
ATL (bile duct ligated rats [1]): 30.70 ± 3.26 U/L
Ammonia (bile duct ligated rats [1]): 205.7 ± 16.6 µmol/L
Total Bilirubin (bile duct ligated rats [1]): 4.87 ± 0.90 mg/dL
liver fatty acid binding protein mRNA level, of the sham group ([2]; RT-PCR): 74%
liver fatty acid binding protein level, of the sham group ([2]; Western blot): 79%
TBARS (liver) (bile duct ligated rats [3]; liver): 0.266 ± 0.053 nmol/mg protein
TBARS (serum) (bile duct ligated rats [3]; serum): 0.212 ± 0.032 nmol/ml serum

O=C1O[C@H]([C@@H](O)CO)C(O)=C1O [Vitamin C]
antioxidant properties in the AMVN system [4]: no antioxidant properties

Albumin
effect on free radical inactivation (AAPH) [5]: 97±1%

Lysozyme
effect on free radical inactivation (AAPH) [5]: 96±1%

Source: patent US20070197606A1, “USE OF PPAR AGONISTS AS ANTI-OXIDANTS” (priority 2006, published 2007)
